Reference: ChEMBL document CHEMBL1671707, “Mycobacterium tuberculosis dihydrofolate reductase is not a target relevant to the antitubercular activity of isoniazid” (Antimicrob Agents Chemother, 2010)
In brackets after ≈: the same amount, converted by molar mass. Activity calls are given as the source filed them. No cut-off for these calls is given here.

Legend:
[1] = system: Mycolicibacterium smegmatis; assay: Antimicrobial activity against Mycobacterium smegmatis MC2 4517 by broth microdilution method; type: functional
[2] = system: Mycolicibacterium smegmatis; assay: Antimicrobial activity against Mycobacterium smegmatis MC2 5069 assessed as growth inhibition at 150 ug/ml; type: functional, organism-based
[3] = system: Mycolicibacterium smegmatis; assay: Antimicrobial activity against Mycobacterium smegmatis MC2 5072 overexpressing dhfr gene assessed as growth inhibition at 120 ug/ml; type: functional, organism-based
[4] = system: Mycolicibacterium smegmatis; assay: Antimicrobial activity against Mycobacterium smegmatis MC2 5071 overexpressing InhA gene assessed as growth inhibition at 10 ug/ml; type: functional, organism-based
[5] = system: Mycolicibacterium smegmatis; assay: Antimicrobial activity against Mycobacterium smegmatis MC2 5072 overexpressing dhfr gene assessed as growth inhibition at 10 ug/ml; type: functional, organism-based
[6] = system: Mycolicibacterium smegmatis; assay: Antimicrobial activity against Mycobacterium smegmatis MC2 5069 assessed as growth inhibition at 50 ug/ml; type: functional, organism-based
[7] = system: Mycolicibacterium smegmatis; assay: Antimicrobial activity against Mycobacterium smegmatis MC2 5071 overexpressing InhA gene assessed as growth inhibition at 50 ug/ml; type: functional, organism-based
Dihydrofolate reductase = target: T1, Dihydrofolate reductase (Mycobacterium tuberculosis, UniProt P9WNX1); assay: Inhibition of Mycobacterium tuberculosis dihydrofolate reductase
T1 sequence (P9WNX1 whole entry): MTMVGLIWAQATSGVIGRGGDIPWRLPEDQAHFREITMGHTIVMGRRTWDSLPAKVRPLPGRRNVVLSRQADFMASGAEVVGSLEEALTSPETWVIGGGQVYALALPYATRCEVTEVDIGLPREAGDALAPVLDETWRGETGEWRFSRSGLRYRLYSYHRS

[8] = system: Mycolicibacterium smegmatis; assay: Antimicrobial activity against Mycobacterium smegmatis MC2 5071 overexpressing InhA gene assessed as growth inhibition at 150 ug/ml; type: functional, organism-based
Escherichia coli = assay: Antimicrobial activity against Escherichia coli expressing katG and dfrA gene; type: functional, organism-based
[9] = system: Mycolicibacterium smegmatis; assay: Antimicrobial activity against Mycobacterium smegmatis MC2 5071 overexpressing InhA gene assessed as growth inhibition at 120 ug/ml; type: functional, organism-based
[10] = system: Mycolicibacterium smegmatis; assay: Ratio of MIC for Mycobacterium smegmatis overexpressing dfrA gene to MIC for wild-type Mycobacterium smegmatis; type: functional
[11] = system: Mycobacterium tuberculosis; assay: Antimicrobial activity against wild-type Mycobacterium tuberculosis H37Rv by MTT assay; type: functional

Compound	MIC [1] [µg/mL]	Activity [2]	Activity [3]	Activity [4]	Activity [5]	Activity [6]	Activity [7]	Ki (Dihydrofolate reductase) [nM]	Activity [8]	Activity (Escherichia coli)	Activity [9]	Ratio [10]	MIC [11] [µg/mL]
CCc1cc(C(N)=S)ccn1 [ETHIONAMIDE]	9.4 (≈ 56.5 µM)												
NNC(=O)c1ccncc1 [ISONIAZID]	4.7 (≈ 34.3 µM)	Active	Active	inactive	Active	Active	Active	1	Active	inactive	inactive	2	0.06 (≈ 0.438 µM)
